In PMC6128854 (Scientific Reports, 2018):
Positions of bridges follow the written chain, without caps; N, C: chain ends. Non-standard residues stand in square brackets, D forms with d. Residues, ends and D or L forms follow the SMILES beside them. Hyp = O=C(O)[C@@H]1C[C@@H](O)CN1

What was measured:
endogenous human Cav1.3 = endogenous human Cav1.3 (Homo sapiens, UniProt Q01668)
side effects in rats = conditions: rat, in vivo
[1] = target: N-type calcium channel currents (Cav2.2) in rDRG neurons (Rattus norvegicus, UniProt Q02294); experiment: cell-based; conditions: SEM
endogenous human Cav3.1 = endogenous human Cav3.1 (Homo sapiens, UniProt O43497)

endogenous human Cav1.3, sequence (Q01668 whole entry): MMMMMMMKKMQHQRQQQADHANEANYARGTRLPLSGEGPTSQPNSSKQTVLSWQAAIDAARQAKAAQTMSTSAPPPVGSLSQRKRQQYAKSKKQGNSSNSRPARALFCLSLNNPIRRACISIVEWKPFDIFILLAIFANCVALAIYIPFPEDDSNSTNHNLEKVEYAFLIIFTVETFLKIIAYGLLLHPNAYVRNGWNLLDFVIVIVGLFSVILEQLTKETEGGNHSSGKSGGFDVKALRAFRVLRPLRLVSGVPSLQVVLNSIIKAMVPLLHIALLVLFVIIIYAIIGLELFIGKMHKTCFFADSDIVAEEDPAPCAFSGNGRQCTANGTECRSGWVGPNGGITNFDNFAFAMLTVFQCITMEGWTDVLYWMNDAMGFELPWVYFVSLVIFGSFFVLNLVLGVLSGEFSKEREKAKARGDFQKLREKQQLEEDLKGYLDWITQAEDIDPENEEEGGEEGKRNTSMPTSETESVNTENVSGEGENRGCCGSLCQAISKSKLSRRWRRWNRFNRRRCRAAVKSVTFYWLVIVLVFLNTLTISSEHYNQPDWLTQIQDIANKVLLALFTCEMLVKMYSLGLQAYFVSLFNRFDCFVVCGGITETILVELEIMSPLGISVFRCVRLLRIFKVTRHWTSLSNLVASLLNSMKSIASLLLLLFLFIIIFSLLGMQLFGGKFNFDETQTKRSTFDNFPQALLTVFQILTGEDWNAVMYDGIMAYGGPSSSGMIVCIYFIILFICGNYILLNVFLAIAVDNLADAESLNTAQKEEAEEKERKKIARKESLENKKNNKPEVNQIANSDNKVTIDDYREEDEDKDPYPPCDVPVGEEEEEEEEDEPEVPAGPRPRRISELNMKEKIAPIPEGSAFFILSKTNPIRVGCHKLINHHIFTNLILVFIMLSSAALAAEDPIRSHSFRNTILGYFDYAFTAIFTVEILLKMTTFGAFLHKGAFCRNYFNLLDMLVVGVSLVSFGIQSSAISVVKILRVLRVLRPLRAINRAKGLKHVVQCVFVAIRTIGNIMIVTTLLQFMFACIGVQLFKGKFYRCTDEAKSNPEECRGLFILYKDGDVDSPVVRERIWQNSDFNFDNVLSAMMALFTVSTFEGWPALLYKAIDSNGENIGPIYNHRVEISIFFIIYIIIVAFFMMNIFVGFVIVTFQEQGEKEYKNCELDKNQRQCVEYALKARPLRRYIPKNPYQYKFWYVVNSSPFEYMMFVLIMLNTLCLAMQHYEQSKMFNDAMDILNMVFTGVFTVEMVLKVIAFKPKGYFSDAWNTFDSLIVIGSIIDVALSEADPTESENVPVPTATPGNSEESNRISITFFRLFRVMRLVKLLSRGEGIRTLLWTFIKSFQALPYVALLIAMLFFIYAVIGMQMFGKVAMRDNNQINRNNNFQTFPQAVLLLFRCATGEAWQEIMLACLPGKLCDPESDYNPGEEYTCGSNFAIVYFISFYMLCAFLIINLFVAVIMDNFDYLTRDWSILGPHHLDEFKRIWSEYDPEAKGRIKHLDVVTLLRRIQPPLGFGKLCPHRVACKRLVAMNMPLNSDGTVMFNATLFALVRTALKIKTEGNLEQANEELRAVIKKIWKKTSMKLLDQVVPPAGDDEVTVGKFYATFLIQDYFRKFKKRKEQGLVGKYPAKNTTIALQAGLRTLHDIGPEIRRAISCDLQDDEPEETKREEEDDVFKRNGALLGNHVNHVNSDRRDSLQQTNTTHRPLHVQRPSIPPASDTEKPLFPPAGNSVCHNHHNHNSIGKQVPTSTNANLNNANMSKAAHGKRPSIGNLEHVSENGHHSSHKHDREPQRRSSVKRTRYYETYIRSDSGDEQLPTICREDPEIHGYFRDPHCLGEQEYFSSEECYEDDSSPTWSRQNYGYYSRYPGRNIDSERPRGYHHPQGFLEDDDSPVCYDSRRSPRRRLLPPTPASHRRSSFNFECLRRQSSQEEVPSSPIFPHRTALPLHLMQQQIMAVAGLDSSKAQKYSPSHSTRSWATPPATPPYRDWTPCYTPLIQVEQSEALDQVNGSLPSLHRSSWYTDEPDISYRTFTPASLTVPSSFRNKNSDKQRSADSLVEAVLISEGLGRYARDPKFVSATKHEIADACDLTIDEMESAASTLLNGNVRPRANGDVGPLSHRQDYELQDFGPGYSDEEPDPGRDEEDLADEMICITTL
endogenous human Cav1.3, sequence (P54289 25-956 partner limits assumed): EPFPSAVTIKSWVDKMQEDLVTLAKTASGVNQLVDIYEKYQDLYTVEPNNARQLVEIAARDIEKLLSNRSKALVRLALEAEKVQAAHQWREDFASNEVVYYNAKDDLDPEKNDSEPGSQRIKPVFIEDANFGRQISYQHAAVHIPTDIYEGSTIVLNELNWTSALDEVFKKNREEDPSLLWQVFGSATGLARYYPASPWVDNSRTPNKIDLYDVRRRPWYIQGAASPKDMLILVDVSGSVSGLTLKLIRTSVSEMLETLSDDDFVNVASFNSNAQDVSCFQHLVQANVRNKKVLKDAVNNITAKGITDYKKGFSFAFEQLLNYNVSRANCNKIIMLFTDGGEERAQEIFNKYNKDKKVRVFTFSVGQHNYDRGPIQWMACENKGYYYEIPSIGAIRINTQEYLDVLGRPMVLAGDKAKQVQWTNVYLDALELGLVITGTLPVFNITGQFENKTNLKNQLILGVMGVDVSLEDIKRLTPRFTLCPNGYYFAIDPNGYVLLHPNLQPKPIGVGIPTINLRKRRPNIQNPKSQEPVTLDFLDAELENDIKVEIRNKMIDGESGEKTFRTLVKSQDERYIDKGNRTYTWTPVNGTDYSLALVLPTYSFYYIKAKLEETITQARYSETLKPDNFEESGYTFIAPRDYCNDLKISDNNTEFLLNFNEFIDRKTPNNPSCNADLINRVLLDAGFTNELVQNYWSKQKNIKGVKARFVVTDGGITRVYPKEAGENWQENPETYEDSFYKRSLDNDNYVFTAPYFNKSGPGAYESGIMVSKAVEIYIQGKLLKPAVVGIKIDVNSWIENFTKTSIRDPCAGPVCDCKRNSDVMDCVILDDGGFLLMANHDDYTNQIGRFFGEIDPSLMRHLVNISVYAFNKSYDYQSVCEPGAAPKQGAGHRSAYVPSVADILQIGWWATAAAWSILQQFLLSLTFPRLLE
endogenous human Cav1.3, sequence (P54289 957-1103 partner limits assumed): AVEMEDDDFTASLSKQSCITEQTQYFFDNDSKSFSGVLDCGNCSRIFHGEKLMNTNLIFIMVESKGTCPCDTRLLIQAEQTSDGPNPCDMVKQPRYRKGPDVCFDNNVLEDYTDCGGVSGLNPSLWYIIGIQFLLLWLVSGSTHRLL
endogenous human Cav1.3, sequence (P54284 whole entry partner): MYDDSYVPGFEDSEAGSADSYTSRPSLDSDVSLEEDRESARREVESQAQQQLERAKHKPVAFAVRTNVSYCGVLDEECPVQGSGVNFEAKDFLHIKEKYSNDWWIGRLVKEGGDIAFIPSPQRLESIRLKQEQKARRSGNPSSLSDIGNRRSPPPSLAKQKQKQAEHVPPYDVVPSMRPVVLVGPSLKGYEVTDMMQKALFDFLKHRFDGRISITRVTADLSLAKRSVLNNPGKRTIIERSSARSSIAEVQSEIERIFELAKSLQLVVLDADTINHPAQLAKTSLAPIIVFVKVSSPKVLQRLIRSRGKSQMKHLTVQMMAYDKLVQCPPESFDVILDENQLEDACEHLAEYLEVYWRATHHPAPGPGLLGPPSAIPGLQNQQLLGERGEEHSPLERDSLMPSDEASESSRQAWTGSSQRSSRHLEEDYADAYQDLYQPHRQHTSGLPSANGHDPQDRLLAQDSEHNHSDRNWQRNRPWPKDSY

| SMILES | activity at endogenous human Cav1.3 (endogenous human Cav1.3) | duration of side effects (side effects in rats) | therapeutic index (ratio of ED50 visual side effect score to ED50 mechanical PWT) (side effects in rats) | ED50 for visual side effect score (side effects in rats; SEM) | IC50 [1] | activity at endogenous human Cav3.1 (endogenous human Cav3.1) |
| --- | --- | --- | --- | --- | --- | --- |
| CC[C@H](C)[C@@H]1NC(=O)[C@@H]2CSSC[C@@H]3NC(=O)[C@H](CCCCN)NC(=O)[C@H](CO)NC(=O)CNC(=O)[C@@H]4C[C@@H](O)CN4C(=O)[C@@H]4CCCN4C(=O)[C@H](CCCCN)NC(=O)[C@@H](N)CSSC[C@H](NC(=O)[C@H](CSSC[C@@H](C(=O)N[C@@H](CCCNC(=N)N)C(=O)N[C@@H](CCCCN)C(=O)N[C@@H](Cc4ccc(O)cc4)C(=O)N[C@@H](Cc4ccc(O)cc4)C(=O)O)NC(=O)[C@H](CCCNC(=N)N)NC(=O)[C@H](CCCCN)NC(=O)[C@H]([C@@H](C)O)NC(=O)[C@H](Cc4ccc(O)cc4)NC(=O)[C@H](CO)NC1=O)NC(=O)[C@H](CC(=O)O)NC(=O)[C@H](CCCNC(=N)N)NC(=O)[C@H](CCSC)NC(=O)[C@H](CO)NC(=O)[C@@H]1C[C@@H](O)CN1C(=O)[C@H](CO)NC3=O)C(=O)N[C@@H]([C@@H](C)O)C(=O)N[C@@H]([C@@H](C)O)C(=O)N2 [MoVIB] (H-CKP[Hyp]GSKCS[Hyp]SMRDCCTTCISYTKRCRKYY-OH; disulfide 1-16, 8-19, 15-26) | inactive | up to 4 h | 2.2 | 0.09 ± 0.05 nmol | 180 ± 30 nM | inactive |
| CC[C@H](C)[C@@H]1NC(=O)[C@@H]2CSSC[C@@H]3NC(=O)[C@H](CCCCN)NC(=O)[C@H](CO)NC(=O)CNC(=O)[C@@H]4C[C@@H](O)CN4C(=O)[C@@H]4CCCN4C(=O)[C@H](CCCCN)NC(=O)[C@@H](N)CSSC[C@H](NC(=O)[C@H](CSSC[C@@H](C(=O)N[C@@H](CCCNC(=N)N)C(=O)N[C@@H](CCCCN)C(=O)N[C@@H](Cc4ccc(O)cc4)C(=O)N[C@@H](Cc4ccc(O)cc4)C(=O)N[C@@H](CC(N)=O)C(=O)O)NC(=O)[C@H](CCCNC(=N)N)NC(=O)[C@H](CCCCN)NC(=O)[C@H]([C@@H](C)O)NC(=O)[C@H](Cc4ccc(O)cc4)NC(=O)[C@H](CO)NC1=O)NC(=O)[C@H](CC(=O)O)NC(=O)[C@H](CCCNC(=N)N)NC(=O)[C@H](CCSC)NC(=O)[C@H](CO)NC(=O)[C@@H]1C[C@@H](O)CN1C(=O)[C@H](CO)NC3=O)C(=O)N[C@@H]([C@@H](C)O)C(=O)N[C@@H]([C@@H](C)O)C(=O)N2 [MoVIA] (H-CKP[Hyp]GSKCS[Hyp]SMRDCCTTCISYTKRCRKYYN-OH; disulfide 1-16, 8-19, 15-26) | inactive |  |  |  | 80 ± 10 nM | inactive |
